# Test results from BindingDB's records for doi:10.1016/j.bmcl.2006.03.080 (University of Siena, 2006).
# Experiments:
# [1] = Antiviral activity against HIV1 IRLL98 in MT4 cells by MTT assay
# [2] = Antiviral activity against HIV1 Y188L mutant in MT4 cells by MTT assay
# [3] = Antiviral activity against HIV1 K103N mutant in MT4 cells by MTT assay
# [4] = Antiviral activity against HIV1 Y181C mutant in MT4 cells by MTT assay
# [5] = Antiviral activity against wild type HIV1 NL4-3 in MT4 cells by MTT assay
SMILES,EC50 [1],EC50 [2],EC50 [3],EC50 [4],EC50 [5]
COc1ccc(Sc2nc(Cc3c(Cl)cccc3Cl)c(C)c(=O)[nH]2)cn1,8.68 µM,> 61.3 µM,> 61.7 µM,6.52 µM,2.72 µM
COc1ccc(Sc2nc(Cc3c(F)cccc3F)c(C)c(=O)[nH]2)cc1,> 57.5 µM,> 57.5 µM,> 57.5 µM,,0.67 µM
COc1ccc(Sc2nc(Cc3c(Cl)cccc3Cl)c(C)c(=O)[nH]2)cc1,> 61.4 µM,> 61.4 µM,> 61.4 µM,> 61.4 µM,26.5 µM
Cc1c(Cc2c(Cl)cccc2Cl)nc(Sc2ccc(F)cc2F)[nH]c1=O,44.7 µM,> 60.5 µM,> 60.5 µM,,3.36 µM
"Cc1cn([C@H]2C[C@H](N=[N+]=[N-])[C@@H](CO)O2)c(=O)[nH]c1=O [1-((2R,4S,5S)-4-Azido-5-hydroxymethyl-tetrahydro-furan-2-yl)-5-methyl-1H-pyrimidine-2,4-dione]",0.008 µM,0.003 µM,0.003 µM,,
Cc1c(Cc2c(Cl)cccc2Cl)nc(Sc2ccccc2)[nH]c1=O,4.91 µM,> 66.3 µM,> 66.3 µM,12.1 µM,1.8 µM
Cc1c(Cc2c(F)cccc2F)nc(Sc2ccc(F)cc2F)[nH]c1=O,25.8 µM,> 65.8 µM,> 65.8 µM,,0.31 µM
Cc1c(Cc2c(Cl)cccc2Cl)nc(Sc2ccc(C#N)cc2)[nH]c1=O,> 27.6 µM,> 27.6 µM,> 27.6 µM,5.1 µM,2.49 µM
Cc1c(Cc2c(F)cccc2F)nc(Sc2ccc(Cl)cc2)[nH]c1=O,> 66.1 µM,> 66.1 µM,8.01 µM,,0.1 µM
Cc1c(Cc2c(F)cccc2F)nc(Sc2ccccc2)[nH]c1=O,16.7 µM,> 72.7 µM,42.5 µM,,0.09 µM
